Laboratory results from article PMC10413841, “Exploration of Thiourea-Based Scaffolds for the Construction of Bacterial Ureases Inhibitors” (ACS Omega, 2023).
Values joined by “and” are separate entries in the source; they are usually repeats but may differ in a detail not shown here. Identical values can stand only once. Like-named read-outs stand apart in the source and are kept apart here.

What was measured:
[1] = target: T1, native S. pasteurii CCM 2056 urease (Sporosarcina pasteurii, UniProt P41020); test: Inhibition of purified native urease, indophenol (Berthelot) ammonia assay; format: biochemical; details: for Ki: purified native enzyme, EI dissociation constant from Lineweaver-Burke plots, urea up to 30 mM, 3 mM phosphate buffer; for type (mode) of inhibition / α quantifier between ESI dissociation constant Ki* and EI dissociation constant Ki: purified S. pasteurii urease
T1 construct: The S. pasteurii CCM 2056 cells were used as the source of a native enzyme; endogenous in cells; host or cells: S. pasteurii CCM 2056 culture; endogenous enzyme purified in house from the sonicated cell extract by five-step chromatography
Protocol: The kinetic properties of the compounds as potential urease inhibitors were evaluated against native enzyme purified from S. pasteurii CCM 2056 culture. Residual enzyme activity was expressed as ammonia release from urea followed quantitively using the Berthelot reaction. All of the studied structures were reversibly inhibitory, with dissociation constants ranging from submicromolar to moderate micromolar concentrations (Table 1). The α quantifier between the enzyme-substrate-inhibitor complex (ESI) dissociation constant Ki* and the EI dissociation constant Ki [drawing 1] was calculated to determine the influence of substrate binding on the stability of the EI complex. […] For modeled compounds 19, 16, and 29, the values of α were 152.01, 38.04, and 14.52, respectively. […] For comparison, the α value of compound 52 was 1.37.
The S. pasteurii CCM 2056 cells were used as the source of a native enzyme. The culture medium was made of 20 g/L yeast extract. One day after the inoculation, the medium was further supplemented with 1 mM NiCl2 and 1% urea. After 2 more days of growth, the cells were centrifuged and disintegrated via sonication. Enzyme purification from the cell extract was conducted using a five-step chromatographic method as previously reported.[50]
Inhibition of the purified urease was measured using the indophenol assay for ammonia concentration.[65] The kinetic assays in 3 mM phosphate buffer contained the purified enzyme, studied thiourea analogues, and a range of urea concentrations up to saturating 30 mM. Total progress curves were analyzed with the addition of the enzyme at the reaction start. Assays were terminated with the sequential addition of 100 μL of M1 ([…] sodium nitroprusside, 0.53 M phenol) and M2 (0.625 M sodium hydroxide, 47.1 mM sodium hypochlorite) solution to 50 μL of reaction mixture sample. After 15 min of color development, absorbance at 650 nm was measured. […] In order to verify the inhibition mode as well as calculate the dissociation constant for EI complex, Lineweaver–Burke curves were plotted (1/v = f(1/[S])). For noncompetitive or mixed inhibition mode, Ki was calculated from plots of the LB curves slope as a function of inhibitor concentration.

[2] = test system: live cells of P. mirabilis PCM 543; test: Whole-cell ureolysis: ammonia release from urea in live cells; format: cell-based, Proteus mirabilis; details: urea hydrolysis in live cells, 30 mM urea, 10 mM PBS, read-out: IC50 [μM] (± SD) P. mirabilis cells
Protocol: Proteus mirabilis PCM 543 was cultured as described for S. pasteurii except for nickel ions—0.3 mM NiCl2 was used in the growth medium. Cells harvested by centrifugation were resuspended in 10 mM PBS and used for urease activity measurements. Assays were conducted in 10 mM PBS containing 30 mM urea and different concentrations of urease inhibitors and ammonia quantified by indophenol assay.

[3] = test system: live cells of S. pasteurii CCM 2056; test: as above; format: cell-based, Sporosarcina pasteurii; details: for IC50: Sporosarcina pasteurii, CCM2056
[4] = urea hydrolysis in live cells, 30 mM urea, 10 mM PBS, read-out: IC50 [μM] (± SD) S. pasteurii cells

T1 sequence (P41022 whole entry): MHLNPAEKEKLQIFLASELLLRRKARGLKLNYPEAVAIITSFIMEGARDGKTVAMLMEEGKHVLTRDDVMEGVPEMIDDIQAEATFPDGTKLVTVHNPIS
T1 sequence (P41021 whole entry, further chain): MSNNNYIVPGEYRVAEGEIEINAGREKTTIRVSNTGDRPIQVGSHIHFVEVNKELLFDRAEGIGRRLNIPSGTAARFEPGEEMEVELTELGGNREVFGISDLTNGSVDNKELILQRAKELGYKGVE
T1 sequence (P41020 whole entry): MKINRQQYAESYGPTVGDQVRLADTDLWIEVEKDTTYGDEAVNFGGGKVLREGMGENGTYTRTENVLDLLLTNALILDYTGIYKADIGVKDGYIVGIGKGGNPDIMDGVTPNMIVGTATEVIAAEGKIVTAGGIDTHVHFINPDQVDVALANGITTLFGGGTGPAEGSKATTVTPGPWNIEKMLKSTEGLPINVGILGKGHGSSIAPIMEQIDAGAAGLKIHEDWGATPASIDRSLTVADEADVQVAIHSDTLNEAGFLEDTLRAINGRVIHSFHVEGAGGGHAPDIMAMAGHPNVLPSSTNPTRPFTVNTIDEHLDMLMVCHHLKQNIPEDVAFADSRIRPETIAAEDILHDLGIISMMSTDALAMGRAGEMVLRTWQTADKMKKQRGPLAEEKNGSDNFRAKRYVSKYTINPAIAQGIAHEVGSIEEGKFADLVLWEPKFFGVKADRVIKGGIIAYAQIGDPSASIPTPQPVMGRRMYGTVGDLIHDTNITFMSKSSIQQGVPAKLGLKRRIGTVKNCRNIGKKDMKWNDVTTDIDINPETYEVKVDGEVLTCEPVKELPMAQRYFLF

Row | SMILES | Ki ([1]; read-out: Ki [μM] (± SD)) | IC50 ([2]; Proteus mirabilis) [µM] | IC50 [3, 4] [µM] | also measured
1 | NC(=S)N1N=C(c2ccccc2)CC1c1ccccc1 (stereo not shown) [Compound 32, 3,5-Diphenyl-4,5-dihydro-1H-pyrazole-1-carbothioamide] | 71.7 ± 8.26 µM | – | – | –
2 | C/C(=N\NC(N)=S)c1ccc(O)cc1 [Compound 20, (E)-2-(1-(4-Hydroxyphenyl)ethylidene)hydrazine-1-carbothioamide] | 33.4 ± 2.61 µM | 513 ± 33.9 | 87.6 ± 9.07 | type (mode) of inhibition [1]: noncompetitive
3 | Cc1ccc(/C=N/NC(N)=S)cc1 [Compound 16, (E)-2-(4-Methylbenzylidene)hydrazine-1-carbothioamide] | 0.99 µM and 0.998 µM | 282 ± 32.4 | 9.92 ± 1.31 | α quantifier between ESI dissociation constant Ki* and EI dissociation constant Ki [1]: 38.04
4 | NC(=S)N/N=C/c1ccc(Cl)cc1 [Compound 17, (E)-2-(4-Chlorobenzylidene)hydrazine-1-carbothioamide] | 8.15 ± 0.908 µM | 454 ± 26.3 | 16.4 ± 0.94 | –
5 | Cc1ccc(C2C=C(c3ccccc3)NC(=S)N2)cc1 (stereo not shown) [Compound 38, 6-Phenyl-4-(p-tolyl)-3,4-dihydropyrimidine-2(1H)-thione] | 27.4 ± 3.47 µM | – | – | –
6 | Cc1ccc(/C=N/NC(=S)NN)cc1 [Compound 28, (E)-N′-(4-Methylbenzylidene)hydrazinecarbothiohydrazide] | 13.5 ± 3.16 µM | 664 ± 35.2 | 118 ± 7.7 | –
7 | S=C(NCc1ccccc1)Nc1nc(-c2ccccc2)cs1 [Compound 49, 1-Benzyl-3-(4-phenylthiazol-2-yl)thiourea] | 46 ± 3.71 µM | 554 ± 18.8 | 476 ± 26.1 | –
8 | COc1ccc(C2=NN(C(N)=S)C(c3ccccc3)C2)c(OC)c1 (stereo not shown) [Compound 36, 3-(2,4-Dimethoxyphenyl)-5-phenyl-4,5-dihydro-1H-pyrazole-1-carbothioamide] | 57.7 ± 4.42 µM | – | – | –
9 | S=C1NC(c2ccccc2)=CC(c2ccc(Cl)cc2)N1 (stereo not shown) [Compound 39, 4-(4-Chlorophenyl)-6-phenyl-3,4-dihydropyrimidine-2(1H)-thione] | 30.2 ± 4.23 µM | – | – | –
10 | NC(=S)N/N=C(\C=C\c1ccc(Cl)cc1)c1ccccc1 [Compound 23, (E)-2-((E)-3-(4-Chlorophenyl)-1-phenylallylidene)hydrazine-1-carbothioamide] | 14.9 ± 2.01 µM | 430 ± 26.9 | 58.4 ± 3.21 | –
11 | COc1ccc(-c2csc(NC(=S)NCc3ccccc3)n2)c(OC)c1 [Compound 51, 1-Benzyl-3-(4-(2,4-dimethoxyphenyl)thiazol-2-yl)thiourea] | – | 509 ± 31.6 | 326 ± 18.7 | Ki ([1]; Ki [μM] (± SD)): 22.2 ± 2.66 µM
12 | NC(=S)N/N=C/c1ccccc1 [Compound 15, (E)-2-Benzylidenehydrazine-1-carbothioamide] | 3.57 ± 0.182 µM | 347 ± 23.1 | 3.83 ± 0.282 | IC50 ([3]; Gram-positive S. pasteurii cells, ureolysis inhibition, read-out: IC50 in S. pasteurii cells (unit inferred)): 3.8 ± 0.2 µM
13 | SC1=NC(c2ccccc2)=CC(c2ccccc2)N1 (stereo not shown) [Compound 37, 4,6-Diphenyl-3,4-dihydropyrimidine-2(1H)-thione] | 36.2 ± 5.2 µM | – | – | –
14 | NC(=S)N/N=C(\C=C\c1ccc(F)cc1)c1ccccc1 [Compound 24, (E)-2-((E)-3-(4-Fluorophenyl)-1-phenylallylidene)hydrazine-1-carbothioamide] | 24.2 ± 1.52 µM | 510 ± 17.8 | 36.2 ± 2.84 | –
15 | Cc1ccc(/C=C/C(=N\NC(=S)NN)c2ccccc2)cc1 [Compound 30, N′-((1E,2E)-1-Phenyl-3-(p-tolyl)allylidene)hydrazinecarbothiohydrazide] | 59.5 ± 4.4 µM | – | 553 ± 27.8 | –
16 | NC(=S)N/N=C(\C=C\c1ccccc1)c1ccccc1 [Compound 21, (E)-2-((E)-1,3-Diphenylallylidene)hydrazine-1-carbothioamide] | 6.13 ± 0.714 µM | 519 ± 27.6 | 102 ± 8.4 | type (mode) of inhibition [1]: noncompetitive

Row | SMILES | Ki ([1]; read-out: Ki [μM] (± SD)) | IC50 ([2]; Proteus mirabilis) [µM] | IC50 [3, 4] [µM] | also measured
17 | NC(=S)N/N=C(\C=C\c1ccccc1)c1ccc(O)cc1 [Compound 25, (E)-2-((E)-1-(4-Hydroxyphenyl)-3-phenylallylidene)hydrazine-1-carbothioamide] | 5.4 ± 0.327 µM | 763 ± 41.1 | 149 ± 8.7 | type (mode) of inhibition [1]: noncompetitive
18 | Oc1ccc(-c2csc(NC(=S)NCc3ccccc3)n2)cc1 [Compound 52, 1-Benzyl-3-(4-(4-hydroxyphenyl)thiazol-2-yl)thiourea] | 2.76 µM | 304 ± 14 | 76.3 ± 4.5 | IC50 [2]: 304 ± 13.9 µM; fold change of inhibitory activity (IC50) against S. pasteurii cells compared to nonhydroxylated analogue 49 ([3]; 52 versus 49): over 6 fold; type (mode) of inhibition [1]: noncompetitive inhibition; α quantifier between ESI dissociation constant Ki* and EI dissociation constant Ki [1]: 1.37
19 | COc1ccc(C2=CC(c3ccccc3)NC(=S)N2)c(OC)c1 (stereo not shown) [Compound 41, 6-(2,4-Dimethoxyphenyl)-4-phenyl-3,4-dihydropyrimidine-2(1H)-thione] | 47.7 ± 6.31 µM | – | – | –
20 | Fc1ccc(C2C=C(c3ccccc3)NC(=S)N2)cc1 (stereo not shown) [Compound 40, 4-(4-Fluorophenyl)-6-phenyl-3,4-dihydropyrimidine-2(1H)-thione] | 5.55 ± 0.873 µM | – | – | –
21 | NNC(=S)N/N=C/c1ccccc1 [Compound 27, (E)-N′-Benzylidenehydrazinecarbothiohydrazide] | 8.31 ± 0.438 µM | 544 ± 17.9 | 11.6 ± 0.65 | –
22 | NNC(=S)N/N=C(\C=C\c1ccc(Cl)cc1)c1ccccc1 [Compound 31, N′-((1E,2E)-3-(4-Chlorophenyl)-1-phenylallylidene)hydrazinecarbothiohydrazide] | 12.8 ± 1.54 µM | – | 132 ± 6.9 | –
23 | S=C(NCc1ccccc1)Nc1nc(-c2ccc(Br)cc2)cs1 [Compound 53, 1-Benzyl-3-(4-(4-bromophenyl)thiazol-2-yl)thiourea] | 10.7 ± 0.79 µM | 638 ± 48.2 | 416 ± 32.4 | –
24 | COc1ccc(-c2csc(NC(=S)NCc3ccccc3)n2)cc1 [Compound 50, 1-Benzyl-3-(4-(4-methoxyphenyl)thiazol-2-yl)thiourea] | 41.4 ± 3.73 µM | – | – | –
25 | NC(=S)N1N=C(c2ccccc2)CC1c1ccc(F)cc1 (stereo not shown) [Compound 35, 5-(4-Fluorophenyl)-3-phenyl-4,5-dihydro-1H-pyrazole-1-carbothioamide] | 46.5 ± 6.3 µM | – | – | –
26 | NNC(=S)N/N=C(\C=C\c1ccccc1)c1ccccc1 [Compound 29, N′-((1E,2E)-1,3-Diphenylallylidene)hydrazinecarbothiohydrazide] | 2.24 µM | – | – | α quantifier between ESI dissociation constant Ki* and EI dissociation constant Ki [1]: 14.52
27 | COc1ccc(C(/C=C/c2ccccc2)=N/NC(N)=S)c(OC)c1 [Compound 26, (E)-2-((E)-1-(2,4-Dimethoxyphenyl)-3-phenylallylidene)hydrazine-1-carbothioamide] | 3.02 ± 0.23 µM | – | 134 ± 11.4 | type (mode) of inhibition [1]: noncompetitive
28 | Cc1ccc(C2CC(c3ccccc3)=NN2C(N)=S)cc1 (stereo not shown) [Compound 33, 3-Phenyl-5-(p-tolyl)-4,5-dihydro-1H-pyrazole-1-carbothioamide] | 87.1 ± 9.29 µM | – | – | –
29 | C/C(=N\NC(N)=S)c1ccccc1 [Compound 19, (E)-2-(1-Phenylethylidene)hydrazine-1-carbothioamide] | 0.39 µM and 0.391 µM | 568 ± 47.7 | 194 ± 12.5 | α quantifier between ESI dissociation constant Ki* and EI dissociation constant Ki [1]: 152.01
30 | NC(=S)N1N=C(c2ccccc2)CC1c1ccc(Cl)cc1 (stereo not shown) [Compound 34, 5-(4-Chlorophenyl)-3-phenyl-4,5-dihydro-1H-pyrazole-1-carbothioamide] | 30.5 ± 2.84 µM | – | – | –
31 | COc1ccc(/C=N/NC(N)=S)cc1OC [Compound 18, (E)-2-(3,4-Dimethoxybenzylidene)hydrazine-1-carbothioamide] | 37.5 ± 4.79 µM | – | – | –
32 | Cc1ccc(/C=C/C(=N\NC(N)=S)c2ccccc2)cc1 [Compound 22, (E)-2-((E)-1-Phenyl-3-(p-tolyl)allylidene)hydrazine-1-carbothioamide] | 5.18 ± 0.691 µM | 1110 ± 126 | 764 ± 50.3 | –
